According to the supplement of paper PMC8882468:

Test system: HCI-015 (organoid from a triple-negative breast cancer xenograft)
Experiment: CTG-3D luminescence at 96 h relative to day-0 seeding control (ratio to day 0); higher = more growth / less cytotoxicity; PDxO 3D drug screen, 96 h, CTG-3D normalised to day-0 seeding control.
Settings: 1 µM; days in culture: 218

Row | SMILES | CTG-3D luminescence at 96 h
1 | C[C@@H]1COCCN1c1cc(C2([S@](C)(=N)=O)CC2)nc(-c2cc[nH]c3nccc2-3)n1 [ceralasertib] | 1.2
2 | CCN1CCN(Cc2ccc(Nc3ncc(F)c(-c4cc(F)c5nc(C)n(C(C)C)c5c4)n3)nc2)CC1 [abemaciclib] | 1.48
3 | NC1(C(=O)N[C@@H](CCO)c2ccc(Cl)cc2)CCN(c2nc[nH]c3nccc2-3)CC1 [capivasertib] | 0.974
4 | CC(C)n1nc(-c2ccc3oc(N)nc3c2)c2c(N)ncnc21 [sapanisertib] | 0.547
5 | O=C(c1ccc(F)c(F)c1Nc1ccc(I)cc1F)N1CC(O)([C@@H]2CCCCN2)C1 [cobimetinib] | 1.39
6 | C[C@H](NC(=O)CCC(F)(F)F)C(=O)N[C@@H]1C(=O)N(CCO)c2ncccc2-c2ccccc21 [crenigacestat] | 0.7
7 | Cc1cc(Nc2ncc(Cl)c(Nc3ccccc3S(=O)(=O)C(C)C)n2)c(OC(C)C)cc1C1CCNCC1 [ceritinib] | 1.33
8 | CS(=O)(=O)c1ccc(C(=O)Nc2ccc(Cl)c(-c3ccccn3)c2)c(Cl)c1 [vismodegib] | 1.73
9 | NC(=O)c1cccc2cn(-c3ccc([C@@H]4CCCNC4)cc3)nc12 [niraparib] | 0.615

Same assay, conditions: 10 µM; days in culture: 172

Row | SMILES | CTG-3D luminescence at 96 h
10 | C[C@@H]1COCCN1c1cc(C2([S@](C)(=N)=O)CC2)nc(-c2cc[nH]c3nccc2-3)n1 [ceralasertib] | 0.531
11 | CCN1CCN(Cc2ccc(Nc3ncc(F)c(-c4cc(F)c5nc(C)n(C(C)C)c5c4)n3)nc2)CC1 [abemaciclib] | 1.06
12 | NC1(C(=O)N[C@@H](CCO)c2ccc(Cl)cc2)CCN(c2nc[nH]c3nccc2-3)CC1 [capivasertib] | 0.92
13 | CC(C)n1nc(-c2ccc3oc(N)nc3c2)c2c(N)ncnc21 [sapanisertib] | 0.544
14 | O=C(c1ccc(F)c(F)c1Nc1ccc(I)cc1F)N1CC(O)([C@@H]2CCCCN2)C1 [cobimetinib] | 0.989
15 | C[C@H](NC(=O)CCC(F)(F)F)C(=O)N[C@@H]1C(=O)N(CCO)c2ncccc2-c2ccccc21 [crenigacestat] | 1.02
16 | Cc1cc(Nc2ncc(Cl)c(Nc3ccccc3S(=O)(=O)C(C)C)n2)c(OC(C)C)cc1C1CCNCC1 [ceritinib] | 0.00586
17 | CS(=O)(=O)c1ccc(C(=O)Nc2ccc(Cl)c(-c3ccccn3)c2)c(Cl)c1 [vismodegib] | 1.25
18 | NC(=O)c1cccc2cn(-c3ccc([C@@H]4CCCNC4)cc3)nc12 [niraparib] | 0.199

Same assay, conditions: 10 µM; days in culture: 191

Row | SMILES | CTG-3D luminescence at 96 h
19 | C[C@@H]1COCCN1c1cc(C2([S@](C)(=N)=O)CC2)nc(-c2cc[nH]c3nccc2-3)n1 [ceralasertib] | 0.413
20 | CCN1CCN(Cc2ccc(Nc3ncc(F)c(-c4cc(F)c5nc(C)n(C(C)C)c5c4)n3)nc2)CC1 [abemaciclib] | 1.09
21 | NC1(C(=O)N[C@@H](CCO)c2ccc(Cl)cc2)CCN(c2nc[nH]c3nccc2-3)CC1 [capivasertib] | 0.533
22 | CC(C)n1nc(-c2ccc3oc(N)nc3c2)c2c(N)ncnc21 [sapanisertib] | 0.363
23 | O=C(c1ccc(F)c(F)c1Nc1ccc(I)cc1F)N1CC(O)([C@@H]2CCCCN2)C1 [cobimetinib] | 0.894
24 | C[C@H](NC(=O)CCC(F)(F)F)C(=O)N[C@@H]1C(=O)N(CCO)c2ncccc2-c2ccccc21 [crenigacestat] | 0.657
25 | Cc1cc(Nc2ncc(Cl)c(Nc3ccccc3S(=O)(=O)C(C)C)n2)c(OC(C)C)cc1C1CCNCC1 [ceritinib] | 0.00448
26 | CS(=O)(=O)c1ccc(C(=O)Nc2ccc(Cl)c(-c3ccccn3)c2)c(Cl)c1 [vismodegib] | 1.15
27 | NC(=O)c1cccc2cn(-c3ccc([C@@H]4CCCNC4)cc3)nc12 [niraparib] | 0.29

Same assay, conditions: 10 µM; days in culture: 218

Row | SMILES | CTG-3D luminescence at 96 h
28 | C[C@@H]1COCCN1c1cc(C2([S@](C)(=N)=O)CC2)nc(-c2cc[nH]c3nccc2-3)n1 [ceralasertib] | 0.408
29 | CCN1CCN(Cc2ccc(Nc3ncc(F)c(-c4cc(F)c5nc(C)n(C(C)C)c5c4)n3)nc2)CC1 [abemaciclib] | 1.23
30 | NC1(C(=O)N[C@@H](CCO)c2ccc(Cl)cc2)CCN(c2nc[nH]c3nccc2-3)CC1 [capivasertib] | 0.878
31 | CC(C)n1nc(-c2ccc3oc(N)nc3c2)c2c(N)ncnc21 [sapanisertib] | 0.511
32 | O=C(c1ccc(F)c(F)c1Nc1ccc(I)cc1F)N1CC(O)([C@@H]2CCCCN2)C1 [cobimetinib] | 1.12
33 | C[C@H](NC(=O)CCC(F)(F)F)C(=O)N[C@@H]1C(=O)N(CCO)c2ncccc2-c2ccccc21 [crenigacestat] | 0.533
34 | Cc1cc(Nc2ncc(Cl)c(Nc3ccccc3S(=O)(=O)C(C)C)n2)c(OC(C)C)cc1C1CCNCC1 [ceritinib] | 0.00686
35 | CS(=O)(=O)c1ccc(C(=O)Nc2ccc(Cl)c(-c3ccccn3)c2)c(Cl)c1 [vismodegib] | 1.61
36 | NC(=O)c1cccc2cn(-c3ccc([C@@H]4CCCNC4)cc3)nc12 [niraparib] | -0.0786

Same assay, conditions: 100 µM; days in culture: 172

Row | SMILES | CTG-3D luminescence at 96 h
37 | C[C@@H]1COCCN1c1cc(C2([S@](C)(=N)=O)CC2)nc(-c2cc[nH]c3nccc2-3)n1 [ceralasertib] | 0.385
38 | CCN1CCN(Cc2ccc(Nc3ncc(F)c(-c4cc(F)c5nc(C)n(C(C)C)c5c4)n3)nc2)CC1 [abemaciclib] | 0.0103
39 | NC1(C(=O)N[C@@H](CCO)c2ccc(Cl)cc2)CCN(c2nc[nH]c3nccc2-3)CC1 [capivasertib] | 0.424
40 | CC(C)n1nc(-c2ccc3oc(N)nc3c2)c2c(N)ncnc21 [sapanisertib] | 0.204
41 | O=C(c1ccc(F)c(F)c1Nc1ccc(I)cc1F)N1CC(O)([C@@H]2CCCCN2)C1 [cobimetinib] | 0.00672
42 | C[C@H](NC(=O)CCC(F)(F)F)C(=O)N[C@@H]1C(=O)N(CCO)c2ncccc2-c2ccccc21 [crenigacestat] | 1.03
43 | Cc1cc(Nc2ncc(Cl)c(Nc3ccccc3S(=O)(=O)C(C)C)n2)c(OC(C)C)cc1C1CCNCC1 [ceritinib] | -0.0049
44 | CS(=O)(=O)c1ccc(C(=O)Nc2ccc(Cl)c(-c3ccccn3)c2)c(Cl)c1 [vismodegib] | 0.214
45 | NC(=O)c1cccc2cn(-c3ccc([C@@H]4CCCNC4)cc3)nc12 [niraparib] | -0.107

Same assay, conditions: 100 µM; days in culture: 191

Row | SMILES | CTG-3D luminescence at 96 h
46 | C[C@@H]1COCCN1c1cc(C2([S@](C)(=N)=O)CC2)nc(-c2cc[nH]c3nccc2-3)n1 [ceralasertib] | 0.258
47 | CCN1CCN(Cc2ccc(Nc3ncc(F)c(-c4cc(F)c5nc(C)n(C(C)C)c5c4)n3)nc2)CC1 [abemaciclib] | 0.0126
48 | NC1(C(=O)N[C@@H](CCO)c2ccc(Cl)cc2)CCN(c2nc[nH]c3nccc2-3)CC1 [capivasertib] | 0.257
49 | CC(C)n1nc(-c2ccc3oc(N)nc3c2)c2c(N)ncnc21 [sapanisertib] | 0.165
50 | O=C(c1ccc(F)c(F)c1Nc1ccc(I)cc1F)N1CC(O)([C@@H]2CCCCN2)C1 [cobimetinib] | 0.0092
51 | C[C@H](NC(=O)CCC(F)(F)F)C(=O)N[C@@H]1C(=O)N(CCO)c2ncccc2-c2ccccc21 [crenigacestat] | 0.695
52 | Cc1cc(Nc2ncc(Cl)c(Nc3ccccc3S(=O)(=O)C(C)C)n2)c(OC(C)C)cc1C1CCNCC1 [ceritinib] | -0.00428
53 | CS(=O)(=O)c1ccc(C(=O)Nc2ccc(Cl)c(-c3ccccn3)c2)c(Cl)c1 [vismodegib] | 0.207
54 | NC(=O)c1cccc2cn(-c3ccc([C@@H]4CCCNC4)cc3)nc12 [niraparib] | -0.000426

Same assay, conditions: 100 µM; days in culture: 218

Row | SMILES | CTG-3D luminescence at 96 h
55 | C[C@@H]1COCCN1c1cc(C2([S@](C)(=N)=O)CC2)nc(-c2cc[nH]c3nccc2-3)n1 [ceralasertib] | 0.265
56 | CCN1CCN(Cc2ccc(Nc3ncc(F)c(-c4cc(F)c5nc(C)n(C(C)C)c5c4)n3)nc2)CC1 [abemaciclib] | 0.0151
57 | NC1(C(=O)N[C@@H](CCO)c2ccc(Cl)cc2)CCN(c2nc[nH]c3nccc2-3)CC1 [capivasertib] | 0.315
58 | CC(C)n1nc(-c2ccc3oc(N)nc3c2)c2c(N)ncnc21 [sapanisertib] | 0.156
59 | O=C(c1ccc(F)c(F)c1Nc1ccc(I)cc1F)N1CC(O)([C@@H]2CCCCN2)C1 [cobimetinib] | 0.00858
60 | C[C@H](NC(=O)CCC(F)(F)F)C(=O)N[C@@H]1C(=O)N(CCO)c2ncccc2-c2ccccc21 [crenigacestat] | 0.827
61 | Cc1cc(Nc2ncc(Cl)c(Nc3ccccc3S(=O)(=O)C(C)C)n2)c(OC(C)C)cc1C1CCNCC1 [ceritinib] | -0.00473
62 | CS(=O)(=O)c1ccc(C(=O)Nc2ccc(Cl)c(-c3ccccn3)c2)c(Cl)c1 [vismodegib] | -0.148
63 | NC(=O)c1cccc2cn(-c3ccc([C@@H]4CCCNC4)cc3)nc12 [niraparib] | -0.35

Same assay, conditions: 625 fM; days in culture: 172

Row | SMILES | CTG-3D luminescence at 96 h
64 | C[C@@H]1COCCN1c1cc(C2([S@](C)(=N)=O)CC2)nc(-c2cc[nH]c3nccc2-3)n1 [ceralasertib] | 2.27
65 | CCN1CCN(Cc2ccc(Nc3ncc(F)c(-c4cc(F)c5nc(C)n(C(C)C)c5c4)n3)nc2)CC1 [abemaciclib] | 1.19
66 | NC1(C(=O)N[C@@H](CCO)c2ccc(Cl)cc2)CCN(c2nc[nH]c3nccc2-3)CC1 [capivasertib] | 2.15
67 | CC(C)n1nc(-c2ccc3oc(N)nc3c2)c2c(N)ncnc21 [sapanisertib] | 2.17
68 | O=C(c1ccc(F)c(F)c1Nc1ccc(I)cc1F)N1CC(O)([C@@H]2CCCCN2)C1 [cobimetinib] | 2.48
69 | C[C@H](NC(=O)CCC(F)(F)F)C(=O)N[C@@H]1C(=O)N(CCO)c2ncccc2-c2ccccc21 [crenigacestat] | 2.13
70 | Cc1cc(Nc2ncc(Cl)c(Nc3ccccc3S(=O)(=O)C(C)C)n2)c(OC(C)C)cc1C1CCNCC1 [ceritinib] | 2.67
71 | CS(=O)(=O)c1ccc(C(=O)Nc2ccc(Cl)c(-c3ccccn3)c2)c(Cl)c1 [vismodegib] | 3.01
72 | NC(=O)c1cccc2cn(-c3ccc([C@@H]4CCCNC4)cc3)nc12 [niraparib] | 2.29

Same assay, conditions: 625 fM; days in culture: 191

Row | SMILES | CTG-3D luminescence at 96 h
73 | C[C@@H]1COCCN1c1cc(C2([S@](C)(=N)=O)CC2)nc(-c2cc[nH]c3nccc2-3)n1 [ceralasertib] | 1.52
74 | CCN1CCN(Cc2ccc(Nc3ncc(F)c(-c4cc(F)c5nc(C)n(C(C)C)c5c4)n3)nc2)CC1 [abemaciclib] | 1.07
75 | NC1(C(=O)N[C@@H](CCO)c2ccc(Cl)cc2)CCN(c2nc[nH]c3nccc2-3)CC1 [capivasertib] | 1.27
76 | CC(C)n1nc(-c2ccc3oc(N)nc3c2)c2c(N)ncnc21 [sapanisertib] | 1.72
